This note sets out measurements from ChEMBL document CHEMBL1126173, “Molecular recognition of amiloride analogs: a molecular electrostatic potential analysis. 1. Pyrazine ring modifications” (J Med Chem, 1992).

Holding throughout (settings): rana ridibundus
Series [1] in a line: Inhibitory activity against epithelial sodium channels- NA+/H+ antiporter, Na+/ca+2 exchanger, Na+/ca+2 channels, K+ channel, nicotinic acetylcholine receptor and Na+/K+ ATPase (microscopic dissociation constant). In kind it is ADME.
Series [2] can be described thus: Inhibitory activity against epithelial sodium channels- NA+/H+ antiporter, Na+/ca+2 exchanger, Na+/ca+2 channels, K+ channel, nicotinic acetylcholine receptor and Na+/K+ ATPase.
A short description of series [3]: Blocking time for inhibition of epithelial sodium channels- NA+/H+ antiporter, Na+/ca+2 exchanger, Na+/ca+2 channels, K+ channel, nicotinic acetylcholine receptor and Na+/K+ ATPase.
A short description of series [4]: Inhibitory activity against epithelial sodium channels- NA+/H+ antiporter, Na+/ca+2 exchanger, Na+/ca+2 channels, K+ channel, nicotinic acetylcholine receptor and Na+/K+ ATPase(microscopic dissociation constant).

On to `Nc1nc(N)c(C(=O)NC(N)N)nc1I`, for which the Koff in series [1] came to 17.41 s⁻¹. Further, in series [2], the Kon amounted to 1.143e+07 M⁻¹ s⁻¹. In series [3], the Block time worked out at 57 ms.
For `Nc1nc(N)c(C(=O)NC(N)N)nc1Br`, the Koff in series [4] came to 5.58 s⁻¹. Further, the Kon in series [2] was 1.419e+07 M⁻¹ s⁻¹. In series [3], this molecule showed a Block time of 179 ms.
`Nc1nc(N)c(C(=O)NC(N)N)nc1Cl` returned a Koff in series [1] of 3.93 s⁻¹. In series [2], this molecule came in with a Kon of 1.317e+07 M⁻¹ s⁻¹. The molecule also gave a Block time in series [3] of 255 ms.
In series [1], `Nc1cnc(C(=O)NC(N)N)c(N)n1` showed a Koff of 176.25 s⁻¹. Also, in series [2], the Kon worked out at 1.447e+07 M⁻¹ s⁻¹. This molecule showed a Block time in series [3] of 6 ms.
The matching figures for `Nc1nc(Cl)c(Cl)nc1C(=O)NC(N)N`: 151.1 s⁻¹, 5.16e+06 M⁻¹ s⁻¹ and 7 ms.
In series [1], `Nc1ncc(Cl)nc1C(=O)NC(N)N` registered a Koff of 10.89 s⁻¹. In addition, the Kon in series [2] amounted to 3.32e+06 M⁻¹ s⁻¹. Moreover, the Block time in series [3] is reported as 92 ms.
In the case of `Nc1nc(N)c(C(=O)NC(N)N)nc1F`, the Koff in series [1] worked out at 32.2 s⁻¹. The molecule also yielded a Kon in series [2] of 1.354e+07 M⁻¹ s⁻¹. The molecule also gave a Block time in series [3] of 31 ms.
